Assay results reported in patent US10300067B2, “Tetrahydropyridopyrimidine compound or salt thereof” (TAIHO PHARMACEUTICAL CO., LTD., priority 2014, dated 2019).

Experiments:
Type in all cases: cell-based
[1] = biological target: human androgen receptor (Homo sapiens (Human), UniProt P10275); assay: Antagonist activity for AR (pMMTV-luc reporter transcription activity in transfected COS-7 cells, DHT 1 nmol/L); settings: for IC50: 50% transcription activity inhibition concentration, COS-7 cells with pMMTV-luc and pEX-hAR, DHT 1 nmol/L, 24 hours; for antagonist activity for AR (in words): COS-7 reporter assay
Description: Antagonist activity for AR was evaluated according to the following method. COS-7 cells (ATCC) were transfected with pMMTV-luc vector (reporter plasmid having, as an androgen response element, […] long terminal repeat) and pEX-hAR vector (human androgen receptor expression vector: which expresses human AR gene under control of CMV promoter) by using Nucleofector (registered trademark) Kit R (Lonza) as a transfection reagent and Amaxa (Lonza). The COS-7 cells obtained after transfection were seeded in a clear bottom 96 well microplate (BD) at 1.5×10^4/well with phenol red free RPMI1640 containing 10% charcoal-treated fetal bovine serum (hereinbelow, DCC-FBS) (hereinbelow, the medium is referred to as an evaluation medium), and then cultured overnight. […] Then, the transcription activity value was measured. The transcription activity was measured by using Bright-Glo™ Luciferase Assay System (Promega).

[2] = biological target: androgen receptor (Homo sapiens (Human), UniProt P10275, T878A); assay: Activity of reducing expression level of androgen receptor (Western blotting of LNCaP cell lysate); settings: 48 hours
Description: AR positive human prostate cancer cells LNCaP were seeded in a clear bottom 6 well microplate (BD) at 3.5×10^5/well with phenol red free RPMI1640 containing 5% FBS (hereinbelow, the medium is referred to as an evaluation medium), and then cultured overnight. The culture was added with the evaluation medium containing the compound of Examples or the compound of Comparative Examples such that the final concentration of the compound of Examples or the compound of Comparative Examples was 10000 nmol/L, followed by culture for 48 hours. After culture for 48 hours, the medium was removed and the cells were washed with PBS and added with 0.1 mL of Lysis buffer (M-PER added with Protease Inhibitor Cocktail), followed by keeping at 4° C. for 20 minutes. After cell lysis, the cell solution was centrifuged to recover the supernatant as cell lysate. […] The antibody-reacting band (anti AR receptor) was quantified by LAS-3000 (FUJIFILM) using Super Signal West Pico Substrate (Thermo Scientific) as a detection reagent.

[3] = tested on: AR positive human prostate cancer cells VCaP; assay: Agonist activity for AR (cell proliferation rate of VCaP cells); settings: 72 hours, 2 to 10000 nmol/L, more than 10% at any concentration = agonist activity for AR
Description: AR positive human prostate cancer cells VCaP (In Vivo 15:163-168, 2001) were seeded in a clear bottom 96 well microplate (BD) at 1.5×10^4/well with phenol red free RPMI1640 containing 5% DCC-FBS (hereinbelow, the medium is referred to as an evaluation medium), and then cultured overnight. The culture was added with the evaluation medium containing the compound of Examples or the compound of Comparative Examples (final concentration of the compound of Examples or the compound of Comparative Examples: 2, 5, 14, 41, 123, 370, 1111, 3333, or 10000 nmol/L), followed by culture for 72 hours. Then, the number of viable cells was counted (test group). As a control, the cells were cultured after being added with the evaluation medium only, and the number of viable cells was counted (control group). The number of viable cells was measured by using CellTiter-Glo™ Luminescent Cell Viability Assay (Promega). From the measured number of viable cells, cell proliferation rate with respect to the compound of Examples or the compound of Comparative Examples was calculated based on the number of viable cells measured in the case of using the evaluation medium only. Cell proliferation rate (%) =(Number of viable cells in test group−Number of viable cells in control group)/(Number of viable cells in control group)×100
By considering an error in the number of viable cells measured in the case of using the evaluation medium only, when the cell proliferation rate was more than 10% at any concentration of the 9 concentrations which had been evaluated, it was determined to have an agonist activity for AR.

human androgen receptor, sequence (P10275 whole entry): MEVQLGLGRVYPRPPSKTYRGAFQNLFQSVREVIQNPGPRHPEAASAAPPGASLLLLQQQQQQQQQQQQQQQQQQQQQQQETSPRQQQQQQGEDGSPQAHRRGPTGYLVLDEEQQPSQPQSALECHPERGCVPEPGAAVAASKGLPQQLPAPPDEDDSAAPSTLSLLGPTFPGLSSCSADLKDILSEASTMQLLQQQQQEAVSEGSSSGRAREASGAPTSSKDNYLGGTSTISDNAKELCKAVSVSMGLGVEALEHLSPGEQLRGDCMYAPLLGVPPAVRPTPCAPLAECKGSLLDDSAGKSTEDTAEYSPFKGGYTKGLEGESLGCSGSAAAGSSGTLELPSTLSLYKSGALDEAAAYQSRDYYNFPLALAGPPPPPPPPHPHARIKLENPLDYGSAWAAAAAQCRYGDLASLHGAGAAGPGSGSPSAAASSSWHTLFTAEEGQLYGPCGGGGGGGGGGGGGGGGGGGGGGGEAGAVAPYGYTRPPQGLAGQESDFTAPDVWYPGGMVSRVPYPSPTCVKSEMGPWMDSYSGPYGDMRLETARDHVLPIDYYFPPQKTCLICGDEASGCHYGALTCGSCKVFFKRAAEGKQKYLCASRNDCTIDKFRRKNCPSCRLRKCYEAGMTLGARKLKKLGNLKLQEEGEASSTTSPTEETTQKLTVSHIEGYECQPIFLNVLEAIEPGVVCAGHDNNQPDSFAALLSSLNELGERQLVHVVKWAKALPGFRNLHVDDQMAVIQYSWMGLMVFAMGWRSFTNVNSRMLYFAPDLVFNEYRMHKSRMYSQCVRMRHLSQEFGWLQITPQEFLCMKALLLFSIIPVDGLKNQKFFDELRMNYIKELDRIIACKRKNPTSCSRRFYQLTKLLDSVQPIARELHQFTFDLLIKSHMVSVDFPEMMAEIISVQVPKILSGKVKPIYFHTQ
androgen receptor, sequence (P10275 whole entry T878A): as the sequence (P10275 whole entry) above, with T878A counted along it

| Compound | IC50 [1] [nM] | antagonist activity for AR (in words) [1] | 10 μM AR expression reducing activity [2] [%] | Cell proliferation rate (%) [3] [%] |
| --- | --- | --- | --- | --- |
| N#Cc1ccc(C(F)(F)F)cc1N1CCc2c(ncnc2Nc2ccc(C(=O)NCC(F)(F)F)cn2)C1 [Comparative Example 9, 6-((7-(2-Cyano-5-(trifluoromethyl)phenyl)-5,6,7,8-tetrahydropyrido[3,4-d]pyrimidin-4-yl)amino)-N-(2,2,2-trifluoroethyl)nicotinamide, reference compound] | > 10000 |  |  |  |
| CC(C)(O)c1ccc(Nc2ncnc3c2CCN(c2ccc(C#N)cc2Cl)C3)nc1 [Comparative Example 5, 3-Chloro-4-(4-((5-(2-hydroxypropan-2-yl)pyridin-2-yl)amino)-5,6-dihydropyrido[3,4-d]pyrimidin-7(8H)-yl)benzonitrile, reference compound] | > 10000 |  |  |  |
| FC(F)(F)c1ccc(Nc2ncnc3c2CCN(c2ncccc2Cl)C3)cc1 [Comparative Example 4, 7-(3-Chloropyridin-2-yl)-N-(4-(trifluoromethyl)phenyl)-5,6,7,8-tetrahydropyrido[3,4-d]pyrimidin-4-amine, reference compound] | > 10000 | no antagonist activity for AR | <10 |  |
| N#Cc1cccc(N2CCc3c(ncnc3Nc3ccc(C(=O)NCC(F)(F)F)cn3)C2)c1C(F)(F)F [Comparative Example 10, 6-((7-(3-Cyano-2-(trifluoromethyl)phenyl)-5,6,7,8-tetrahydropyrido[3,4-d]pyrimidin-4-yl)amino)-N-(2,2,2-trifluoroethyl)nicotinamide, reference compound] | > 10000 |  |  |  |
| N#Cc1ccc(N2CCc3c(ncnc3Nc3ccc(CC(=O)NCC(F)(F)F)cn3)C2)cc1C(F)(F)F [Example 22, 2-(6-((7-(4-Cyano-3-(trifluoromethyl)phenyl)-5,6,7,8-tetrahydropyrido[3,4-d]pyrimidin-4-yl)amino)pyridin-3-yl)-N-(2,2,2-trifluoroethyl)acetamide] | 370 |  |  |  |
| CC(C)Oc1ccc(Nc2ncnc3c2CN(c2ccc(C#N)c(C(F)(F)F)c2)CC3)cc1 [Comparative Example 2, 4-(4-((4-Isopropoxyphenyl)amino)-7,8-dihydropyrido[4,3-d]pyrimidin-6(5H)-yl)-2-(trifluoromethyl)benzonitrile, reference compound] | > 10000 | no antagonist activity for AR | <10 |  |
| CC(C)(O)C1CCN(C(=O)c2nnc(Nc3ncnc4c3CCN(c3ccc(C#N)c(C(F)(F)F)c3)C4)o2)CC1 [Example 43, 4-(4-((5-(4-(2-Hydroxypropan-2-yl)piperidin-1-carbonyl)-1,3,4-oxadiazol-2-yl)amino)-5,6-dihydropyrido[3,4-d]pyrimidin-7(8H)-yl)-2-(trifluoromethyl)benzonitrile] | 790 |  |  |  |
| COc1cccc(Nc2ncnc3c2CCN(c2ccc(C#N)c(Cl)c2)C3)c1 [Example 55, 2-Chloro-4-(4-((3-methoxyphenyl)amino)-5,6-dihydropyrido[3,4-d]pyrimidin-7(8H)-yl)benzonitrile] |  |  |  | 1.0 |
| CC(C)(COc1ccc(Nc2ncnc3c2CCN(c2ccc(C#N)c(Cl)c2)C3)nc1)n1cnnn1 [Example 53, 2-Chloro-4-(4-((5-(2-methyl-2-(1H-tetrazol-1-yl)propoxy)pyridin-2-yl)amino)-5,6-dihydropyrido[3,4-d]pyrimidin-7(8H)-yl)benzonitrile] | 55 |  |  |  |
| N#Cc1ccc(N2CCc3c(ncnc3Nc3ccc(C4(O)CCC4)c(F)n3)C2)cc1Cl [Example 56, 2-Chloro-4-(4-((6-fluoro-5-(1-hydroxycyclobutyl)pyridin-2-yl)amino)-5,6-dihydropyrido[3,4-d]pyrimidin-7 (8H)-yl)benzonitrile] | 840 |  |  | 8.0 |
| N#Cc1ccc(N2CCc3c(ncnc3Nc3ccc(OCCn4ccnn4)nc3)C2)cc1C(F)(F)F [Example 15, 4-(4-((6-(2-(1H-1,2,3-Triazol-1-yl)ethoxy)pyridin-3-yl)amino)-5,6-dihydropyrido[3,4-d]pyrimidin-7 (8H)-yl)-2-(trifluoromethyl)benzonitrile] | 130 |  |  | 0.3 |
| N#Cc1ccc(N2CCc3c(ncnc3Nc3ncc(C(=O)NCC(F)(F)F)nn3)C2)cc1C(F)(F)F [Example 25, 3-((7-(4-Cyano-3-(trifluoromethyl)phenyl)-5,6,7,8-tetrahydropyrido[3,4-d]pyrimidin-4-yl)amino)-N-(2,2,2-trifluoroethyl)-1,2,4-triazine-6-carboxamide] | 3320 |  |  | 6.3 |
| CC(C)(O)c1cnc(Nc2ncnc3c2CCN(c2ccc(C#N)c(Cl)c2)C3)cc1F [Example 45, 2-Chloro-4-(4-((4-fluoro-5-(2-hydroxypropan-2-yl)pyridin-2-yl)amino)-5,6-dihydropyrido[3,4-d]pyrimidin-7 (8H)-yl)benzonitrile] | 940 |  |  |  |
| N#Cc1ccc(N2CCc3c(ncnc3Nc3cc(C(=O)NCC(F)(F)F)ccn3)C2)cc1C(F)(F)F [Example 31, 2-((7-(4-Cyano-3-(trifluoromethyl)phenyl)-5,6,7,8-tetrahydropyrido[3,4-d]pyrimidin-4-yl)amino)-N-(2,2,2-trifluoroethyl)isonicotinamide] | 390 |  |  |  |
| CC(C)(O)c1ccc(Nc2ncnc3c2CCN(c2cc(Cl)cc(C#N)c2)C3)nc1 [Comparative Example 6, 3-Chloro-5-(4-((5-(2-hydroxypropan-2-yl)pyridin-2-yl)amino)-5,6-dihydropyrido[3,4-d]pyrimidin-7 (8H)-yl)benzonitrile, reference compound] | > 10000 |  |  |  |
| N#Cc1ccc(N2CCc3c(ncnc3Nc3ccc(C(=O)NCC(F)F)nc3)C2)cc1C(F)(F)F [Example 48, 5-((7-(4-Cyano-3-(trifluoromethyl)phenyl)-5,6,7,8-tetrahydropyrido[3,4-d]pyrimidin-4-yl)amino)-N-(2,2-difluoroethyl)picolinamide] | 490 |  |  | −2.6 |
| N#Cc1cc(C(F)(F)F)ccc1N1CCc2c(ncnc2Nc2ccc(C(=O)NCC(F)(F)F)cn2)C1 [Comparative Example 8, 6-((7-(2-Cyano-4-(trifluoromethyl)phenyl)-5,6,7,8-tetrahydropyrido[3,4-d]pyrimidin-4-yl)amino)-N-(2,2,2-trifluoroethyl)nicotinamide, reference compound] | > 10000 |  |  |  |
| CC(C)(O)c1ccc(Nc2ncnc3c2CCN(c2ccc(C#N)cc2)C3)nc1 [Comparative Example 11, 4-(4-((5-(2-Hydroxypropan-2-yl)pyridin-2-yl)amino)-5,6-dihydropyrido[3,4-d]pyrimidin-7(8H)-yl)benzonitrile, reference compound] | > 10000 | did not show the antagonist activity for AR |  |  |
| COc1ccc(Nc2ncnc3c2CCN(c2ccc(C#N)c(Cl)c2)C3)cc1 [Example 54, 2-Chloro-4-(4-((4-methoxyphenyl)amino)-5,6-dihydropyrido[3,4-d]pyrimidin-7(8H)-yl)benzonitrile] |  |  |  | 3.4 |
| CC(C)(O)c1ccc(Nc2ncnc3c2CCN(c2cccc(Cl)c2C#N)C3)nc1 [Comparative Example 7, 2-Chloro-6-(4-((5-(2-hydroxypropan-2-yl)pyridin-2-yl)amino)-5,6-dihydropyrido[3,4-d]pyrimidin-7 (8H)-yl)benzonitrile, reference compound] | > 10000 |  |  |  |
| N#Cc1ccc(N2CCc3c(ncnc3Nc3ccc(NC(=O)OCC(F)(F)F)cn3)C2)cc1C(F)(F)F [Example 21, 2,2,2-Trifluoroethyl (6-((7-(4-cyano-3-(trifluoromethyl)phenyl)-5,6,7,8,-tetrahydropyrido[3,4-d]pyrimidin-4-yl)amino)pyridin-3-yl)carbamate] | 380 |  |  | −0.6 |
| CC(O)c1ccc(Nc2ncnc3c2CCN(c2ccc(C#N)c(C(F)(F)F)c2)C3)cc1 (centres unmarked) [Example 58] |  |  |  | 2.0 |
